For one test, the target named is CDK12/CycK (Homo sapiens, UniProt Q9NYV4). Briefly: CDK12/CycK high ATP kinase assay (TR-FRET, 2 mM ATP). In kind it is biochemical. Conditions: 2 mM ATP (high ATP); median; read-out: CDK12/CyclinK, 2 mM ATP (high ATP), IC50-[mol/l] (median). Here is the method: In the context of the present invention, the term “IC50 CDK12 hATP” refers to the IC50 values obtained according to the assay described in this section (2.2) herein below, i.e. the IC50 values for the inhibition of CDK12 at high (2 mM) ATP.
CDK12/CycK-inhibitory activity of compounds of the present invention at 2 millimol/L adenosine-tri-phosphate (ATP) was quantified employing the TR-FRET (TR-FRET=Time Resolved Fluorescence Energy Transfer) based CDK12/CycK activity inhibition assay as described in the following paragraphs.
A complex of human recombinant CDK12 and human recombinant CycK (both N-terminally His-tagged, expression and purification as described above) was used as enzyme. As substrate for the kinase reaction biotinylated peptide biotin-Ahx-KFELLPTPPLSPSRRSGL (C-terminus in amid form) was used which can be purchased e.g. form the company Biosyntan (Berlin-Buch, Germany).
For the assay 50 nanoL of a 100 fold concentrated solution of the test compound in DMSO was pipetted into either a black low volume 384 well microtiter plate or a black 1536 well microtiter plate (both Greiner Bio-One, Frickenhausen, Germany), 2 microL of a solution of CDK12/CycK in aqueous assay buffer [25 millimol/L HEPES pH 7.5, 20 millimol/L MgCl2, 5 millimol/L β-glycerophosphate, 2 millimol/L EGTA, 1.0 millimol/L dithiothreitol, 0.01% (v/v) Nonidet-P40 (Sigma), 0.01% (w/v) bovine serum albumin] were added and the mixture was incubated for 15 min at 22° C. to allow pre-binding of the test compounds to the enzyme before the start of the kinase reaction. Then the kinase reaction was started by the addition of 3 microL of a solution ATP (3.33 millimol/L=>final conc. in the 5 microL assay volume is 2 millimol/L) and substrate (1.67 micromol/L=>final conc. in the 5 microL assay volume is 1 micromol/L) in assay buffer and the resulting mixture was incubated for a reaction time of 60 min at 22° C. The concentration of CDK12/CycK was adjusted depending of the activity of the enzyme lot and was chosen appropriate to have the assay in the linear range, typical concentrations were about 0.75 nanomol/L. The reaction was stopped by the addition of 3 microL of a solution of TR-FRET detection reagents (125 nanomol/L streptavidine-XL665 [Cisbio Bioassays, Codolet, France] and 0.67 nanomol/L anti-Phospho-c-Myc (Ser 62) (E1J4K)-antibody from Cell Signalling [#13748] and 2 nanomol/L LANCE EU-W1024 labeled anti-rabbit IgG antibody [Perkin-Elmer, product no. 0083]) in an aqueous EDTA-solution (133 millimol/L EDTA, 0.27% (w/v) bovine serum albumin in 66.7 millimol/L HEPES pH 7.5).
(§1) The resulting mixture was incubated 1 h at 22° C. to allow the formation of complex between the phosphorylated biotinylated peptide and the detection reagents. Subsequently the amount of phosphorylated substrate was evaluated by measurement of the resonance energy transfer from the Eu-chelate to the streptavidine-XL. Therefore, the fluorescence emissions at 620 nm and 665 nm after excitation at 350 nm was measured in a TR-FRET reader, e.g. a Pherastar FS (BMG Labtechnologies, Offenburg, Germany) or a Viewlux (Perkin-Elmer). The ratio of the emissions at 665 nm and at […] was taken as the measure for the amount of phosphorylated substrate. The data were normalised (enzyme reaction without inhibitor=0% inhibition, all other assay components but no enzyme=100% inhibition).
A general note: Time-resolved FRET reads energy transfer from a long-lived donor to a nearby acceptor.

For the next test, the target named is T1, CDK2/CycE (Homo sapiens, UniProt P24941).
T1 construct: purchased ProQinase GmbH (Freiburg, Germany); host or cells: insect cells (Sf9)
Description: CDK2/CycE kinase assay (TR-FRET, 2 mM ATP). The format is biochemical. The note with it: 2 mM ATP (high ATP); median; read-out: CDK2/CyclinE, 2 mM ATP (high ATP), IC50 (median).
Text: CDK2/CycE-inhibitory activity of compounds of the present invention was quantified employing the CDK2/CycE TR-FRET assay as described in the following paragraphs.
Recombinant fusion proteins of GST and human CDK2 and of GST and human CycE, expressed in insect cells (Sf9) and purified by Glutathion-Sepharose affinity chromatography, were purchase from ProQinase GmbH (Freiburg, Germany). As substrate for the kinase reaction biotinylated peptide biotin-Ttds-YISPLKSPYKISEG (C-terminus in amid form) was used which can be purchased e.g. form the company JERINI peptide technologies (Berlin, Germany).
For the assay 50 nanoL of a 100 fold concentrated solution of the test compound in DMSO was pipetted into a black low volume 384 well microtiter plate or a black 1536 well microtiter plate (both Greiner Bio-One, Frickenhausen, Germany), 2 microL of a solution of CDK2/CycE in aqueous assay buffer [50 millimol/L Tris/HCl pH 8.0, 10 millimol/L MgCl2, 1.0 millimol/L dithiothreitol, 0.1 millimol/L sodium ortho-vanadate, 0.01% (v/v) Nonidet-P40 (Sigma)] were added and the mixture was incubated for 15 min at 22° C. to allow pre-binding of the test compounds to the enzyme before the start of the kinase reaction. Then the kinase reaction was started by the addition of 3 microL of a solution of adenosine-tri-phosphate (ATP, 3.33 millimol/L=>final conc. in the 5 microL assay volume is 2 millimol/L) and substrate (1.25 micromol/L=>final conc. in the 5 microL assay volume is 0.75 micromol/L) in assay buffer and the resulting mixture was incubated for a reaction time of 25 min at 22° C. The concentration of CDK2/CycE was adjusted depending of the activity of the enzyme lot and was chosen appropriate to have the assay in the linear range, typical concentrations were in the range of 10 ng/ml. The reaction was stopped by the addition of 3 microL of a solution of TR-FRET detection reagents (0.333 micromol/L streptavidine-XL665 [Cisbio Bioassays, Codolet, France] and 1.67 nanomol/L anti-RB(pSer807/pSer8l 1)-antibody from BD Pharmingen [#558389] and 2 nanomol/L LANCE EU-W1024 labeled anti-mouse IgG antibody [Perkin-Elmer, product no. AD0077, as an alternative a Terbium-cryptate-labeled anti-mouse IgG antibody from Cisbio Bioassays can be used]) in an aqueous EDTA-solution (167 millimol/L EDTA, 0.2% (w/v) bovine serum albumin in 100 millimol/L HEPES pH 7.5).
as §1, with “Pherastar” for “Pherastar FS”

The values below come from patent publication US20230117034A1, “PYRAZOLOTRIAZINES” (Bayer Aktiengesellschaft, priority 2019, published 2023).

A value given as a limit tells only on which side of the number the result lay.

CDK12/CycK, sequence (Q9NYV4 with tags, fused parts or gaps): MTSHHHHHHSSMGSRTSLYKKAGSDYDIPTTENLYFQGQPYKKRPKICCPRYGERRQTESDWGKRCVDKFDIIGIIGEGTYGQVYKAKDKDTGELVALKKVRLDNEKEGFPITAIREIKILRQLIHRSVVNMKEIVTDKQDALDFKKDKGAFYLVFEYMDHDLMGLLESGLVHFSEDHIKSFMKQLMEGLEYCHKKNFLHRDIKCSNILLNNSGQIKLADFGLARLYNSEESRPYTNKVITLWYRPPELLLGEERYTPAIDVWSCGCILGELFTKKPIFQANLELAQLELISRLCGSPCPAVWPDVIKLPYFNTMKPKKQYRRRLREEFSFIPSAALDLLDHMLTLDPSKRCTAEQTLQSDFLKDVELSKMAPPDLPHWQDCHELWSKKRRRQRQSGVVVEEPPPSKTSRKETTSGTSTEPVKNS
CDK12/CycK, sequence (O75909 1-300 partner limits assumed): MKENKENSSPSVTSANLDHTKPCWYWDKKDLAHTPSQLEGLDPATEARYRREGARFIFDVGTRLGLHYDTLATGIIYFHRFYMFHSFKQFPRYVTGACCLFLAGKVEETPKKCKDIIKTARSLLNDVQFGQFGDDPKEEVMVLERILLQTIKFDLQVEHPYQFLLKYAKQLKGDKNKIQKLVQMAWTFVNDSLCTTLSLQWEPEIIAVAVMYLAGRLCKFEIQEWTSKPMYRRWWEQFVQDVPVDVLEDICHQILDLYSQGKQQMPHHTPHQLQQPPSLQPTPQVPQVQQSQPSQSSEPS

As to `CC(C)c1cnn2c(NCc3nc4ccccc4[nH]3)nc(N(C)CC(C)(C)O)nc12` [Example 5, 1-{[4-{[(1H-benzimidazol-2-yl)methyl]amino}-8-(propan-2-yl)pyrazolo[1,5-a][1,3,5]triazin-2-yl](methyl)amino}-2-methylpropan-2-ol], the IC50 amounted to 5.17 µM on CDK12/CycK and 1.36 µM at CDK2/CycE.

As to `C[C@@H]1CN(c2nc(NCc3nnc(-c4ccccc4)[nH]3)n3ncc(Br)c3n2)CCN1C.O=CO` [Example 130, 8-bromo-2-[(3R)-3,4-dimethylpiperazin-1-yl]-N-[(5-phenyl-4H-1,2,4-triazol-3-yl)methyl]pyrazolo[1,5-a][1,3,5]triazin-4-amine formate], the values for the IC50 on CDK12/CycK and at CDK2/CycE were 8.44 µM and 8.15 µM, respectively.

With `COc1ccc2[nH]c(CNc3nc(N4C[C@@H](C)O[C@@H](C)C4)nc4c(Br)cnn34)nc2c1` [Example 124, 8-bromo-2-[(2R, 6S)-2,6-dimethylmorpholin-4-yl]-N-[(5-methoxy-1H-benzimidazol-2-yl)methyl]pyrazolo[1,5-a][1,3,5]triazin-4-amine], the IC50 turned out to be 0.489 µM at CDK12/CycK and 8.97 µM at CDK2/CycE.

Consider `CC1(C)CN(c2nc(NCc3nnc(-c4ccccc4)[nH]3)n3ncc(C4CC4)c3n2)CCO1` [Example 94, 8-cyclopropyl-2-(2,2-dimethylmorpholin-4-yl)-N-[(5-phenyl-4H-1,2,4-triazol-3-yl)methyl]pyrazolo[1,5-a][1,3,5]triazin-4-amine], for which the values for the IC50 at CDK12/CycK and at CDK2/CycE were 8.79 µM and > 20 µM, respectively.

For `CC(C)c1cnn2c(NCc3nc4ccccc4[nH]3)nc(N3CCOC[C@@H]3C)nc12` [Example 6, N-[(1H-benzimidazol-2-yl)methyl]-2-[(3S)-3-methylmorpholin-4-yl]-8-(propan-2-yl)pyrazolo[1,5-a][1,3,5]triazin-4-amine], the IC50 at CDK12/CycK was 1.78 µM; on CDK2/CycE, 2.01 µM.

On to `c1ccc(-c2cnn3c(NCc4nc5ccccc5[nH]4)nc(N4CCOCC4)nc23)cc1` [Example 104, N-[(1H-benzimidazol-2-yl)methyl]-2-(morpholin-4-yl)-8-phenylpyrazolo[1,5-a][1,3,5]triazin-4-amine], for which the IC50 on CDK12/CycK and on CDK2/CycE was > 20 µM each time.

For `CCC1COCCN1c1nc(NCc2nc3ccccc3[nH]2)n2ncc(Br)c2n1` (stereo not drawn) [Example 116, N-(1H-benzimidazol-2-ylmethyl)-8-bromo-2-(3-ethylmorpholin-4-yl)pyrazolo[1,5-a][1,3,5]triazin-4-amine], the IC50 at CDK12/CycK turned out to be 6.73 µM; at CDK2/CycE, 3.01 µM.

As to `Clc1ccccc1-c1cnc(CNc2nc(N3CCOCC3)nc3c(Br)cnn23)[nH]1` [Example 96, 8-bromo-N-{[5-(2-chlorophenyl)-1H-imidazol-2-yl]methyl}-2-(morpholin-4-yl)pyrazolo[1,5-a][1,3,5]triazin-4-amine], the IC50 at CDK12/CycK came to 4.65 µM; at CDK2/CycE it was 1.78 µM.

In the case of `CN1CCN(c2nc(NCc3nnc(-c4cccc(F)c4)[nH]3)n3ncc(Br)c3n2)CC1` [Example 136, 8-bromo-N-{[5-(3-fluorophenyl)-4H-1,2,4-triazol-3-yl]methyl}-2-(4-methylpiperazin-1-yl)pyrazolo[1,5-a][1,3,5]triazin-4-amine], the figures for the IC50 on CDK12/CycK and on CDK2/CycE were 4.12 µM and 3.45 µM, respectively.

Turning to `Clc1cccc(-c2cnn3c(NCc4nc5ccccc5[nH]4)nc(N4CCOCC4)nc23)c1` [Example 107, N-[(1H-benzimidazol-2-yl)methyl]-8-(3-chlorophenyl)-2-(morpholin-4-yl)pyrazolo[1,5-a][1,3,5]triazin-4-amine], the IC50 on CDK12/CycK and at CDK2/CycE was > 20 µM each time.

Regarding `FC(F)(F)CN1CCN(c2nc(NCc3nc4ccccc4[nH]3)n3ncc(Br)c3n2)CC1` [Example 139, N-[(1H-benzimidazol-2-yl)methyl]-8-bromo-2-[4-(2,2,2-trifluoroethyl)piperazin-1-yl]pyrazolo[1,5-a][1,3,5]triazin-4-amine], the IC50 was 15.3 µM at CDK12/CycK and 14.7 µM on CDK2/CycE.

For `CN1CCN(c2nc(NCc3nc4c(F)c(F)ccc4[nH]3)n3ncc(C4CC4)c3n2)CC1` [Example 159, 8-cyclopropyl-N-[(4,5-difluoro-1H-benzimidazol-2-yl)methyl]-2-(4-methylpiperazin-1-yl)pyrazolo[1,5-a][1,3,5]triazin-4-amine], the IC50 was 9.62 µM at CDK12/CycK and > 20 µM on CDK2/CycE.

As for `CC(C)c1cnn2c(NCc3nc4ccccc4[nH]3)nc(NCC(C)(C)O)nc12` [Example 10, 1-{[4-{[(1H-benzimidazol-2-yl)methyl]amino}-8-(propan-2-yl)pyrazolo[1,5-a][1,3,5]triazin-2-yl]amino}-2-methylpropan-2-ol], the IC50 amounted to 8.75 µM on CDK12/CycK and 0.874 µM at CDK2/CycE.

As to `Cc1ccc2[nH]c(CNc3nc(N4CCOCC4)nc4c(Br)cnn34)nc2c1` [Example 157, 8-bromo-N-[(5-methyl-1H-benzimidazol-2-yl)methyl]-2-(morpholin-4-yl)pyrazolo[1,5-a][1,3,5]triazin-4-amine], the IC50 at CDK12/CycK was found to be 0.676 µM; at CDK2/CycE, 3.02 µM.

For the compound `Fc1cc(F)cc(-c2nnc(CNc3nc(N4CCOCC4)nc4c(Br)cnn34)[nH]2)c1` [Example 105, 8-bromo-N-{[5-(3,5-difluorophenyl)-4H-1,2,4-triazol-3-yl]methyl}-2-(morpholin-4-yl)pyrazolo[1,5-a][1,3,5]triazin-4-amine], the IC50 on CDK12/CycK was determined as 1.07 µM; on CDK2/CycE it was 0.826 µM.
